For one compound, Ki results are on record in paper PMC8172861, “Structural and phylogenetic analyses of resistance to next-generation aminoglycosides conferred by AAC(2′) enzymes” (Scientific Reports, 2021).

The term Ki denotes the dissociation constant of the complex between target and ligand, obtained from inhibition or displacement. A high value points to a looser hold on the target.

This assay has as its target T1, AAC(2′)-Ia (Providencia stuartii, UniProt Q52424).
T1 construct: AAC(2′)-Ia, N-terminal HIS-tag removed by thrombin
The experiment in a line: crystal structure ([…] Å) and competitive inhibition assay. The format is biochemical.

T1 sequence (Q52424 whole entry): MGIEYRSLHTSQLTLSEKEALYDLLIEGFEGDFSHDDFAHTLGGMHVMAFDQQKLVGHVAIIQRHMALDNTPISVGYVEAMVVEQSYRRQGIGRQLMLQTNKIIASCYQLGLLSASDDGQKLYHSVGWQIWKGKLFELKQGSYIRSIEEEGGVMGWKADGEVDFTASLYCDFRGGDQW

The compound `NCC[C@H](O)C(=O)N[C@@H]1C[C@H](N)[C@@H](O[C@H]2O[C@H](CN)[C@@H](O)[C@H](O)[C@H]2O)[C@H](O)[C@H]1O[C@H]1O[C@H](CO)[C@@H](O)[C@H](N)[C@H]1O` [amikacin] gave a Ki of 87 ± 10 µM.
